Source: paper PMC12396291, “DNA-encoded library screening uncovers potent DNMT2 inhibitors targeting a cryptic allosteric binding site” (iScience, 2025)
Entries after “also recorded” stand apart in the source; their conditions may differ.

target: T1, DNMT2 (Homo sapiens, UniProt O14717); assay: MST displacement assay with fluorescent FTAD probe; format: binding; parameters: Fnorm (MST screening): unit not given here; details: ligand 100 μM, FTAD probe
T1 construct: Recombinant human DNMT2 (full-length); His-tag; made in house; host or cells: E. coli
T1 sequence (O14717 1-391): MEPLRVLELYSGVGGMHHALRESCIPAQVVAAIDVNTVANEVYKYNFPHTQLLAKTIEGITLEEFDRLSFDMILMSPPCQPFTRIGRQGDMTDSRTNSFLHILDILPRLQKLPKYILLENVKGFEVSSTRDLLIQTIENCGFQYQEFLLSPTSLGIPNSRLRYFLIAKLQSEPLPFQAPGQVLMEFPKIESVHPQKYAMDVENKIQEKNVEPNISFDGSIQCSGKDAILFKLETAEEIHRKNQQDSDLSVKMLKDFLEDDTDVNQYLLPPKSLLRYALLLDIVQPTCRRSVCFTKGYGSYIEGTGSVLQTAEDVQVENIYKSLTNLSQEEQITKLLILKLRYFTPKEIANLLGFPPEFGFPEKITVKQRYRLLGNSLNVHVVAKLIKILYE
Experimental: Screening for ligand binding and evaluation of dose-response affinity profiles was performed via microscale thermophoresis (MST) as described previously.[42] The measurements were conducted with a Nanotemper Technologies Monolith NT.115 device. All samples were measured in Monolith standard capillaries at 25 °C. The acquisition mode was set to “Nano-Blue” with an excitation power of 30% and a medium MST power, while the system was controlled using the software MO.Control (version 1.6.1) and for evaluation MO.Affinity Analysis (version 2.3) was used. The samples contained 2 μM DNMT2, 100 nM FTAD (5-FAM-triazolyl-adenosyl-Dab) probe, and 1.3% DMSO in MST buffer (50 mM HEPES, 150 mM NaCl, 1 mM dithiothreitol (DTT), 0.1% PEG-8000, 0.05% polysorbate-20, pH 7.4).[42] All compounds were employed at a final concentration of 100 μM for the initial ligand screening.

| Compound | Fnorm (% displ.): FTAD displacement [%] | Fnorm (MST screening) |
| --- | --- | --- |
| NC(=O)CNC(=O)C[C@@H](Cc1ccccc1)NC(=O)C1(CNC(=O)c2ccccc2)CC1 [Compound 18] | 7 | 868.2 |
| CCc1ccc(C(=O)NC2(C(=O)N[C@@H](CC(=O)NCC(N)=O)Cc3c[nH]c4ccccc34)CC2)cc1 [Compound 26] | 5 | 861.9 |
| C#Cc1ccc(C(=O)NCC2(C(=O)N[C@@H](CC(=O)NCC(N)=O)Cc3ccccc3)CC2)cc1 [Compound 19] | 8 | 871.4 |
| CCc1ccc(C(=O)NCC2(C(=O)N[C@@H](CC(=O)NCC(=O)N(C)C)Cc3ccccc3)CC2)cc1 [Compound 47] | 36 | 901.0 |
| CCc1ccc(C(=O)NCC2(C(=O)N(C)[C@@H](CC(=O)NCC(N)=O)Cc3ccccc3)CC2)cc1 [Compound 45] | 5 | 862.6 |
| CCc1ccc(C(=O)NCC2(C(=O)N[C@@H](CC(=O)NCCC(N)=O)Cc3ccccc3)CC2)cc1 [Compound 43] | 10 | 874.7 |
| CCc1ccc(C(=O)NCCC(=O)N[C@@H](CC(=O)NCC(N)=O)Cc2c[nH]c3ccccc23)cc1 [Compound 27] | 5 | 863.8 |
| CCc1ccc(C(=O)NCC2(C(=O)N[C@@H](CC(=O)NCC(=O)O)Cc3c[nH]c4ccccc34)CC2)cc1 [Compound 9] | 46 | 907.7 |
| CCc1ccc(C(=O)NCC2(C(=O)N[C@@H](CC(=O)NCC(N)=O)Cc3ccccc3)CC2)c(C)c1 [Compound 21] | 5 | 862.4 |
| Cc1ccc(C(=O)NCC2(C(=O)N[C@@H](CC(=O)NCC(N)=O)Cc3ccccc3)CC2)cc1 [Compound 11] | 24 | 891.2 |
| CCc1ccc(C(=O)NCC2(C(=O)N3Cc4ccccc4C[C@@H]3CC(=O)NCC(N)=O)CC2)cc1 [Compound 35] | 5 | 861.5 |
| CCc1ccc(C(=O)N(C)CC2(C(=O)NC(CC(=O)NCC(N)=O)Cc3ccccc3)CC2)cc1 (stereo not shown) [Compound 44] | 7 | 869.7 |
| CCc1ccc(C(=O)NC[C@H](C)C(=O)N[C@@H](CC(=O)NCC(N)=O)Cc2c[nH]c3ccccc23)cc1 [Compound 25] | 3 | 855.5 |
| CCc1ccc(C(=O)NCC2(C(=O)N[C@@H](CC(=O)N[C@@H](C)C(N)=O)Cc3ccccc3)CC2)cc1 [Compound 39] | 8 | 871.4 |
| CC(=O)NCC1(C(=O)N[C@@H](CC(=O)NCC(N)=O)Cc2ccccc2)CC1 [Compound 23] | 5 | 864.4 |
| CCc1ccc(C(=O)NCC2(C(=O)N[C@@H](CC(=O)NCC(N)=O)Cc3ccccc3)C[C@H]2C(F)(F)F)cc1 (stereo partly shown) [Compound 28] | 8 | 871.9 |
| COc1ccc(C(=O)NCC2(C(=O)N[C@@H](CC(=O)NCC(N)=O)Cc3ccccc3)CC2)cc1 [Compound 13] | 32 | 897.7 |
| CCc1ccc(C(=O)NCC2(C(=O)N[C@@H](CC(=O)NCC(N)=O)Cc3ccc(Br)cc3)CC2)cc1 [Compound 17] | 71 | 924.6 |

| Compound | Fnorm (% displ.): FTAD displacement [%] | Fnorm (MST screening) |
| --- | --- | --- |
| CCc1ccc(C(=O)NCC2(C(=O)NCCC(=O)NCC(N)=O)CC2)cc1 [Compound 38] | 4 | 859.4 |
| NC(=O)CNC(=O)C[C@@H](Cc1ccccc1)NC(=O)C1(CNC(=O)C2CCCCC2)CC1 [Compound 22] | 5 | 864.4 |
| NC(=O)CNC(=O)C[C@@H](Cc1ccccc1)NC(=O)C1(CNC(=O)c2ccc(C3(C(F)(F)F)N=N3)cc2)CC1 [Compound 20] | 11 | 876.5 |
| CCCc1ccc(C(=O)NCC2(C(=O)N[C@@H](CC(=O)NCC(N)=O)Cc3ccccc3)CC2)cc1 [Compound 12] | 23 | 890.4 |
| CCc1ccc(C(=O)NCC2(C(=O)N[C@@H](CC(=O)NCC(N)=O)Cc3csc4ccccc34)CC2)cc1 [Compound 32] | 3 | 856.7 |
| CCc1ccc(C(=O)NCC2(C(=O)N[C@@H](CC(=O)N[C@@H](Cc3ccccc3)C(N)=O)Cc3ccccc3)CC2)cc1 [Compound 42] | 4 | 858.8 |
| CCc1ccc(C(=O)NCC2(C(=O)N[C@@H](CC(=O)NCC(N)=O)Cc3ccc(I)cc3)CC2)cc1 [Compound 33] | 18 | 885.6 |
| CCc1ccc(C(=O)NCC2(C(=O)N[C@@H](CC(=O)N[C@H](C)C(N)=O)Cc3ccccc3)CC2)cc1 [Compound 40] | 8 | 870.1 |
| CCc1ccc(C(=O)NCC2(C(=O)N[C@H](CC(=O)NCC(N)=O)Cc3c[nH]c4ccccc34)CC2)cc1 [Compound 31] | 4 | 857.0 |
| CCc1ccc(C(=O)NCC2(C(=O)N[C@@H](CC(=O)NCC(N)=O)Cc3ccc(O)cc3)CC2)cc1 [Compound 15] | 5 | 862.9 |
| CCc1ccc(C(=O)NCC2(C(=O)N[C@@H](CC(=O)NCC(=O)NCCOCCOCCOCCOC)Cc3ccccc3)CC2)cc1 [Compound 48] | 27 | 894.1 |
| CCc1ccc(C(=O)NCC2(C(=O)N[C@@H](CC(=O)N(C)CC(N)=O)Cc3ccccc3)CC2)cc1 [Compound 46] | 7 | 868.4 |
| CCc1ccc(C(=O)NCC2(C(=O)N[C@@H](CC(=O)NCC(N)=O)C(=O)O)CC2)cc1 [Compound 37] | 4 | 858.6 |
| CCc1ccc(C(=O)NCC2(C(=O)N[C@@H](CC(=O)N[C@@H](C(N)=O)[C@@H](C)O)Cc3c[nH]c4ccccc34)CC2)cc1 [Compound 41] | 6 | 865.3 |
| CCc1ccc(C(=O)NCC2(C(=O)N[C@@H](CC(=O)NCC(N)=O)Cc3ccccc3)C[C@H]2S(C)(=O)=O)cc1 (stereo partly shown) [Compound 29] | 9 | 872.3 |
| CCc1ccc(C(=O)NCC2(C(=O)N[C@@H](CC(=O)NCC(N)=O)Cc3ccc4ccccc4c3)CC2)cc1 [Compound 36] | 5 | 861.7 |
| CCc1ccc(C(=O)NC[C@H](N)C(=O)N[C@@H](CC(=O)NCC(N)=O)Cc2c[nH]c3ccccc23)cc1 [Compound 24] | 4 | 860.8 |

system: not listed separately; assay: Parallel artificial membrane permeation assay (PAMPA); format: in vitro ADME; details: 7 h incubation, duplicates
Experimental: To determine the passive permeability of selected DNMT2 ligands, a parallel artificial membrane permeation assay (PAMPA) was performed as described previously.[68] The experiment was performed in duplicates with Sigma-Aldrich MAIPNTR10 donor plates with 5 μL of an artificial membrane (1% w/v L-α-phosphatidylcholine in n-dodecane) per well. After incubation for 7 h, the acceptor solutions were evaluated by LC/MS (HP Agilent 1100 Series). The peak areas in the UV chromatogram (λ = 210 nm) were used to calculate the areas under the curve (AUCs).

| Compound | Papp (PAMPA) |
| --- | --- |
| CCc1ccc(C(=O)NCC2(C(=O)N[C@@H](CC(=O)NCC(=O)N(C)C)Cc3ccccc3)CC2)cc1 [Compound 47] | failed to pass through the artificial membrane; also recorded: below detection limit |
| CCc1ccc(C(=O)NCC2(C(=O)N[C@@H](CC(=O)NCC(=O)O)Cc3ccccc3)CC2)cc1 [Compound 54] | failed to pass through the artificial membrane; also recorded: below detection limit |
| CCc1ccc(C(=O)NCC2(C(=O)N[C@@H](CC(=O)NCC(N)=O)Cc3ccccc3)CC2)cc1 [Compound 14] | failed to pass through the artificial membrane; also recorded: below detection limit |
